Source: patent US20260035365A1, “1H-PYRROLO[3,2-B]PYRIDINE DERIVATIVES AS IRREVERSIBLE INHIBITORS OF MUTANT EGFR FOR THE TREATMENT OF CANCER” (Bayer Aktiengesellschaft, priority 2022, published 2026)

Legend:
[1] = system: BA/F3 (EGFR D770_N771 insSVD T790M) cells; experiment: Ba/F3 cell survival assay (Cell Titer-Glo), EGFR-insSVD T790M; format: cell-based; conditions: Ba/F3 EGFR-D770-N771ins_SVD; 48 h, without IL-3, with EGF
Procedure: 293T cells from ATCC were transfected with pBABEpuro expression constructs for WT EGFR or EGFR-insSVD, or EGFR-insSVD T790M, and pCL-Eco packaging vector using Fugene-6 transfection reagent from Promega. Plates were incubated at 37° C. for 48 h. Retrovirus was harvested by filtering the media supernatant through a 0.45 μm filter.
Ba/F3 cells purchased from DSMZ were grown in RPMI+10% FBS+10 ng/mL IL-3 and infected with filtered retroviral supernatant at a 1:2 dilution. Polybrene was added to a concentration of 8 μg/mL, plates were spun for 90 min, and incubated for 16 h at 37° C. 2 μg/mL puromycin was added to the infected cells 24 h after infection and cells were continually grown in the presence of puromycin and 10 ng/mL IL-3. Following stably expressing Ba/F3 cell lines were generated: Ba/F3-EGFR-WT, Ba/F3-EGFR-insSVD, Ba/F3-EGFR-insSVD T790M, (Ba/F3-vector-control).
For cell survival assays, Ba/F3 cells were grown to a density of 1-2 million cells per mL, spun down and resuspended in media without IL-3, and replated at a concentration of 200,000-500,000 cells per mL. The cells ectopically expressing WT EGFR, EGFR-insSVD, or EGFR-insSVD T790M were plated with 10 ng/mL Millipore Culture grade EGF. The cells ectopically expressing pBABEpuro empty vector were plated with 10 ng/mL IL-3.
2 days later, cells were plated in 50 μL in a 384 well plate at a concentration of 4000 cells per well for cells assayed in the absence of IL-3 and 2000 cells per well for cells assayed in the presence of IL-3. 100 nL of compound was added to each well using a 100 nL pin head, and plates were incubated at 37° C. for 48 h.
Cell viability was measured by adding 20 μL of Cell Titer-Glo Luminescent Cell Viability Reagent diluted 1:3 in PBS. Plates were sealed with Perkin Elmer Top-Seal, inverted several times to mix, and immediately centrifuged at 1000 rpm for 2 min. Plates were incubated in low light conditions for 8-10 min and luminescence was measured.

[2] = target: mutEGFR (D770_N771insSVD) (Homo sapiens, UniProt P00533, INS767SVD); experiment: Exon20-mutant-EGFR (D770_N771insSVD) TR-FRET kinase assay; format: biochemical; conditions: 2 mM ATP, 15 min preincubation
Sequence of mutEGFR (D770_N771insSVD) (P00533 with tags, fused parts or gaps INS767SVD limits assumed): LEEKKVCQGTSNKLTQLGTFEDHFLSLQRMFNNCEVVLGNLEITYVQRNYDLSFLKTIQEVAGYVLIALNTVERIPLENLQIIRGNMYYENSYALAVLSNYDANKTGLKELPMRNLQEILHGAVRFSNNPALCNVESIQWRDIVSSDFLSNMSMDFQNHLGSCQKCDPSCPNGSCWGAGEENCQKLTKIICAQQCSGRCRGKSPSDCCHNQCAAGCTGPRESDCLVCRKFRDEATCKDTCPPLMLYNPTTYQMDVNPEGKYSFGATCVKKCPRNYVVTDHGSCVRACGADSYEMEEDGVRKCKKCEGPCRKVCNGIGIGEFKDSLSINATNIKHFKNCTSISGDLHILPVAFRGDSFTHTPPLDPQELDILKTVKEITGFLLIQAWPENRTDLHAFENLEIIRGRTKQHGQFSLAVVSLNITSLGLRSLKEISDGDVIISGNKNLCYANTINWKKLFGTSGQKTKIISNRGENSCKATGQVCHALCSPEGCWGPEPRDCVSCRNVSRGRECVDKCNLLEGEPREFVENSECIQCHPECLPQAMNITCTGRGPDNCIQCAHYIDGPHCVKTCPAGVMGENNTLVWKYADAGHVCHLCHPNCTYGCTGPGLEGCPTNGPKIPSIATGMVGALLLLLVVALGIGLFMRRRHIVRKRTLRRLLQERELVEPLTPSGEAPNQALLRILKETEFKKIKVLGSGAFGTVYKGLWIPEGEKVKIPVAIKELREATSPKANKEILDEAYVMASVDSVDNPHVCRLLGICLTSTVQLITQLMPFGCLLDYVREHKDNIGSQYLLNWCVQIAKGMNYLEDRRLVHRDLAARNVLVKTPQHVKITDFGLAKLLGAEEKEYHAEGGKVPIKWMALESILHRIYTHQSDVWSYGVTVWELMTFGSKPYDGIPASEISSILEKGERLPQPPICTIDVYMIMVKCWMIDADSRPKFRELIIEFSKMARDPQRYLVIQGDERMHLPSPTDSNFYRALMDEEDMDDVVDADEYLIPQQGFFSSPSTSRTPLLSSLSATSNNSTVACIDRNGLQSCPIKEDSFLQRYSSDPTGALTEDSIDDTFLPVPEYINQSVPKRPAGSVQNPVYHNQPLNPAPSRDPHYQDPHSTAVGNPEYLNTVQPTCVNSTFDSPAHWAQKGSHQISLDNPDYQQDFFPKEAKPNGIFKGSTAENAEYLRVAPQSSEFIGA
In short: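 GST-fused human EGFR fragment R669-A1210 carrying the SVD insertion, Sf9-expressed, typically 15 pg/μl, was preincubated with compound for 15 min at 22° C in pH 7.0 Hepes/MgCl2 buffer. Phosphorylation was read by HTRF (665/620 nm ratio), normalised to no-inhibitor and no-enzyme controls.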

[3] = target: mutEGFR (D770_N771insNPG, T790); experiment: mutEGFR (D770_N771insNPG, T790) kinase assay; format: biochemical, human
Sequence of mutEGFR (D770_N771insNPG, T790) (P00533 with tags, fused parts or gaps INS770NPG limits assumed): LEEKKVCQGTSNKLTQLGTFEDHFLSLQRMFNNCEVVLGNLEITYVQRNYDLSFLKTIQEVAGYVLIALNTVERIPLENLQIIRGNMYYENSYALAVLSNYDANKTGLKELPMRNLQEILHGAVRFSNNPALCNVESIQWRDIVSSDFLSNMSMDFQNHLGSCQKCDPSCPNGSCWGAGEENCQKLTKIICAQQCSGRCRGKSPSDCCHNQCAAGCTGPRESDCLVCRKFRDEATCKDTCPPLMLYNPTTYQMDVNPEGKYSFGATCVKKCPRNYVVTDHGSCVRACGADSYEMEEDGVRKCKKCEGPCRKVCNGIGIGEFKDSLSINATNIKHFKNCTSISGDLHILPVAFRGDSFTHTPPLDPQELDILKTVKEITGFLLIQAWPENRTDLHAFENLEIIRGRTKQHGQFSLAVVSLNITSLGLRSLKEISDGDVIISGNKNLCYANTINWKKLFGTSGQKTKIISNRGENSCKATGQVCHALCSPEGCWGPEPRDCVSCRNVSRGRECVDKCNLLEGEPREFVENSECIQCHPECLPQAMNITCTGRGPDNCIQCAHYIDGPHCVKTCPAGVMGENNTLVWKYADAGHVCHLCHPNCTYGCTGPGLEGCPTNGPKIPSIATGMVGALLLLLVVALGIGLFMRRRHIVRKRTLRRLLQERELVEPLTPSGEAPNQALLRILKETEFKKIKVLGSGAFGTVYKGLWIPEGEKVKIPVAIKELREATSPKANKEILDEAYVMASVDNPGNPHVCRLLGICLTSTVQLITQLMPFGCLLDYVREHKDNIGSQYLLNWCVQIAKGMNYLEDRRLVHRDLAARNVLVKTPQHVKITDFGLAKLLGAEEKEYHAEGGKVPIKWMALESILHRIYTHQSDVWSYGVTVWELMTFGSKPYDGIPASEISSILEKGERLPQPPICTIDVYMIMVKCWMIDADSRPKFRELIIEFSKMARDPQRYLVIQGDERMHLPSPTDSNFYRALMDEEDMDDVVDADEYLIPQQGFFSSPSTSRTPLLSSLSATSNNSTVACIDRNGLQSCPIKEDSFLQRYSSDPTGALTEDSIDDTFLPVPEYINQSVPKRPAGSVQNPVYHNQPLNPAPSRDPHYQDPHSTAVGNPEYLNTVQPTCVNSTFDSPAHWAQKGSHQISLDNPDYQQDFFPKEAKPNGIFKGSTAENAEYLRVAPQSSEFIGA

BA/F3 (insSVD) cells = experiment: Ba/F3 cell survival assay (Cell Titer-Glo), EGFR-insSVD; format: cell-based; conditions: Mus musculus, BaF3, 48 h, without IL-3, with EGF
In short: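 Ba/F3 cells stably expressing EGFR-insSVD or insSVD T790M via retrovirus (puromycin-selected), switched from IL-3 to 10 ng/mL EGF for 2 days, then plated at 4000 cells/well. Compound added by 100 nL pin transfer; 48 h at 37° C. Viability by CellTiter-Glo luminescence.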

| SMILES | IC50 [1] [nM] | IC50 [2] [nM] | IC50 [3] [nM] | IC50 (BA/F3 (insSVD) cells) [nM] |
| --- | --- | --- | --- | --- |
| C=CC(=O)N(C)CCOc1cnccc1-c1[nH]c2cccnc2c1-c1cccc(Cl)c1 [Example 22, N-[2-({4-[3-(3-chlorophenyl)-1H-pyrrolo[3,2-b]pyridin-2-yl]pyridin-3-yl}oxy)ethyl]-N-methylprop-2-enamide] | 7640 | 6.8 | 12.2 | 262 |
| C=CC(=O)N(C)CCOc1cnccc1-c1[nH]c2cccnc2c1-c1ccc(Cl)c(Cl)c1 [Example 23, N-[2-({4-[3-(3,4-dichlorophenyl)-1H-pyrrolo[3,2-b]pyridin-2-yl]pyridin-3-yl}oxy)ethyl]-N-methylprop-2-enamide] | 8860 | 36.8 | 49.3 | 2150 |
| C=CC(=O)N(C)CCOc1cnccc1-c1[nH]c2cccnc2c1-c1ccc(F)c(Cl)c1 [Example 24, N-[2-({4-[3-(3-chloro-4-fluorophenyl)-1H-pyrrolo[3,2-b]pyridin-2-yl]pyridin-3-yl}oxy)ethyl]-N-methylprop-2-enamide] | 8320 | 11.9 | 20.9 | 726 |
| C=CS(=O)(=O)N(C)CCOc1cnccc1-c1[nH]c2cccnc2c1-c1ccccc1 [Example 25, N-methyl-N-(2-{[4-(3-phenyl-1H-pyrrolo[3,2-b]pyridin-2-yl)pyridin-3-yl]oxy}ethyl)ethenesulfonamide] | 3860 | 0.501 | 2.08 | 38.8 |
| CN(C)C/C=C/C(=O)N(C)CCOc1cnccc1-c1[nH]c2cccnc2c1-c1ccccc1 [Example 26, (2E)-4-(dimethylamino)-N-methyl-N-(2-{[4-(3-phenyl-1H-pyrrolo[3,2-b]pyridin-2-yl)pyridin-3-yl]oxy}ethyl)but-2-enamide] | 9980 | 65.9 | 333 | 1530 |
| C#CC(=O)N(C)CCOc1cnccc1-c1[nH]c2cccnc2c1-c1ccccc1 [Example 27, N-methyl-N-(2-{[4-(3-phenyl-1H-pyrrolo[3,2-b]pyridin-2-yl)pyridin-3-yl]oxy}ethyl)prop-2-ynamide] | 8410 | 19.7 | 69.8 | 532 |
| CC#CC(=O)N(C)CCOc1cnccc1-c1[nH]c2cccnc2c1-c1ccccc1 [Example 28, N-methyl-N-(2-{[4-(3-phenyl-1H-pyrrolo[3,2-b]pyridin-2-yl)pyridin-3-yl]oxy}ethyl)but-2-ynamide] | 9980 | 6500 | > 20000 | 9980 |
| C=CS(=O)(=O)N(C)CCOc1cnccc1-c1[nH]c2cccnc2c1-c1cccc(Cl)c1 [Example 29, N-[2-({4-[3-(3-chlorophenyl)-1H-pyrrolo[3,2-b]pyridin-2-yl]pyridin-3-yl}oxy)ethyl]-N-methylethenesulfonamide] | 3130 | 0.349 | 0.801 | 52.4 |
| C=CS(=O)(=O)N(C)CCOc1cnccc1-c1[nH]c2cccnc2c1-c1ccc2cc[nH]c2c1 [Example 30, N-[2-({4-[3-(1H-indol-6-yl)-1H-pyrrolo[3,2-b]pyridin-2-yl]pyridin-3-yl}oxy)ethyl]-N-methylethenesulfonamide] | 831 | 0.513 | 1.82 | 62.2 |
| C=CC(=O)N(C)CCOc1cnccc1-c1[nH]c2cccnc2c1-c1cc(Cl)cc(Cl)c1 [Example 31, N-[2-({4-[3-(3,5-dichlorophenyl)-1H-pyrrolo[3,2-b]pyridin-2-yl]pyridin-3-yl}oxy)ethyl]-N-methylprop-2-enamide] | 9980 | 931 | 391 | 5530 |
| C=CC(=O)N(CC)CCOc1cnccc1-c1[nH]c2cccnc2c1-c1ccccc1 [Example 32, N-ethyl-N-(2-{[4-(3-phenyl-1H-pyrrolo[3,2-b]pyridin-2-yl)pyridin-3-yl]oxy}ethyl)prop-2-enamide] | 9650 | 15.1 | 29.9 | 364 |
| C=CS(=O)(=O)N(CC)CCOc1cnccc1-c1[nH]c2cccnc2c1-c1ccccc1 [Example 33, N-ethyl-N-(2-{[4-(3-phenyl-1H-pyrrolo[3,2-b]pyridin-2-yl)pyridin-3-yl]oxy}ethyl)ethenesulfonamide] | 253 | 0.357 | 1.92 | 30.7 |
| C=CC(=O)N1CCC[C@H]1COc1cnccc1-c1[nH]c2cccnc2c1-c1ccccc1 [Example 34, 1-[(2S)-2-({[4-(3-phenyl-1H-pyrrolo[3,2-b]pyridin-2-yl)pyridin-3-yl]oxy}methyl)pyrrolidin-1-yl]prop-2-en-1-one] | 750 | 0.367 | 2.06 | 16.9 |
| C=CC(=O)N1CCC[C@@H]1COc1cnccc1-c1[nH]c2cccnc2c1-c1ccccc1 [Example 35, 1-[(2R)-2-({[4-(3-phenyl-1H-pyrrolo[3,2-b]pyridin-2-yl)pyridin-3-yl]oxy}methyl)pyrrolidin-1-yl]prop-2-en-1-one] | 9980 | 53.6 | 349 | 1400 |
| C=CS(=O)(=O)N1CCC[C@H]1COc1cnccc1-c1[nH]c2cccnc2c1-c1ccccc1 [Example 36, 2-(3-{[(2S)-1-(ethenesulfonyl)pyrrolidin-2-yl]methoxy}pyridin-4-yl)-3-phenyl-1H-pyrrolo[3,2-b]pyridine] | 44.6 | 0.104 | 0.308 | 3.27 |
| CN(C)C/C=C/C(=O)N1CCC[C@H]1COc1cnccc1-c1[nH]c2cccnc2c1-c1ccccc1 [Example 37, (2E)-4-(dimethylamino)-1-[(2S)-2-({[4-(3-phenyl-1H-pyrrolo[3,2-b]pyridin-2-yl)pyridin-3-yl]oxy}methyl)pyrrolidin-1-yl]but-2-en-1-one] | 9130 | 3.7 | 11.2 | 229 |
| C=CS(=O)(=O)N1CCC[C@H]1COc1cnccc1-c1[nH]c2cccnc2c1-c1cccc(C(F)(F)F)c1 [Example 38, 2-(3-{[(2S)-1-(ethenesulfonyl)pyrrolidin-2-yl]methoxy}pyridin-4-yl)-3-[3-(trifluoromethyl)phenyl]-1H-pyrrolo[3,2-b]pyridine] | 147 | 0.404 | 1.05 | 20.1 |
| C=CC(=O)N1CCC[C@H]1COc1cnccc1-c1[nH]c2cccnc2c1-c1cccc(C(F)(F)F)c1 [Example 39, 1-[(2S)-2-{[(4-{3-[3-(trifluoromethyl)phenyl]-1H-pyrrolo[3,2-b]pyridin-2-yl}pyridin-3-yl)oxy]methyl}pyrrolidin-1-yl]prop-2-en-1-one] | 5400 | 1.19 | 5.22 | 91.4 |
| C=CS(=O)(=O)N1CCC[C@H]1COc1cnccc1-c1[nH]c2cccnc2c1-c1cccc(Cl)c1 [Example 40, 3-(3-chlorophenyl)-2-(3-{[(2S)-1-(ethenesulfonyl)pyrrolidin-2-yl]methoxy}pyridin-4-yl)-1H-pyrrolo[3,2-b]pyridine] | 67.9 | 0.193 | 0.29 | 8.54 |
| C=CC(=O)N1CCC[C@H]1COc1cnccc1-c1[nH]c2cccnc2c1-c1cccc(Cl)c1 [Example 41, 1-{(2S)-2-[({4-[3-(3-chlorophenyl)-1H-pyrrolo[3,2-b]pyridin-2-yl]pyridin-3-yl}oxy)methyl]pyrrolidin-1-yl}prop-2-en-1-one] | 782 | 0.319 | 0.988 | 25.9 |
| C=CC(=O)N1CCC[C@H]1COc1cnccc1-c1[nH]c2cccnc2c1-c1cc(Cl)ccc1F [Example 42, 1-{(2S)-2-[({4-[3-(5-chloro-2-fluorophenyl)-1H-pyrrolo[3,2-b]pyridin-2-yl]pyridin-3-yl}oxy)methyl]pyrrolidin-1-yl}prop-2-en-1-one] | 3640 | 1.11 | 2.84 | 44.7 |
